Experimental data: patent US8735322B2, “Herbicides” (Syngenta Limited, priority 2008, dated 2014)

Tests used:
Type in all cases: in vivo
[1] = tested on: Echinochloa crus-galli (ECHCG); assay: Example A post-emergence herbicidal activity, glasshouse pot test; conditions: 360 h, evaluated 15 days after spraying, read-out: herbicidal damage ECHCG (100=total damage to plant; 0=no damage to plant); for pest or weed control at 125 g/ha: rate 125 g/ha
Procedure: (§1) Seeds of a variety of test species were sown in standard soil in pots. After cultivation for one day (pre-emergence) or after 10 days cultivation (post-emergence) under controlled conditions in a glasshouse, the plants were sprayed with an aqueous spray solution derived from the formulation of the technical active ingredient in 0.6 ml acetone and 45 ml formulation solution containing 10.6% Emulsogen EL (Registry number 61791-12-6), 42.2% N-methylpyrrolidone, 42.2% dipropylene glycol monomethyl ether (Registry number 34590-94-8) and 0.2% X-77 (Registry number 11097-66-8). The test plants were then grown in a greenhouse under optimum conditions until, 15 days later for post-emergence and 20 days for pre-emergence, the test was evaluated (100=total damage to plant; 0=no damage to plant). Alopecurus myosuroides (ALOMY), Avena fatua (AVEFA), Lolium perenne (LOLPE), Setaria faberi (SETFA), Digitaria sanguinalis (DIGSA), Echinochloa crus-galli (ECHCG) Post Emergency Activity

[2] = tested on: Setaria faberi (SETFA); assay: as above; conditions: 360 h, evaluated 15 days after spraying, read-out: herbicidal damage SETFA (100=total damage to plant; 0=no damage to plant); for pest or weed control at 125 g/ha: rate 125 g/ha
Procedure: as §1

[3] = tested on: Alopecurus myosuroides (ALOMY); assay: as above; conditions: 360 h, evaluated 15 days after spraying, read-out: herbicidal damage ALOMY (100=total damage to plant; 0=no damage to plant); for pest or weed control at 125 g/ha: rate 125 g/ha
Procedure: as §1

[4] = tested on: Digitaria sanguinalis (DIGSA); assay: as above; conditions: 360 h, evaluated 15 days after spraying, read-out: herbicidal damage DIGSA (100=total damage to plant; 0=no damage to plant); for pest or weed control at 125 g/ha: rate 125 g/ha
Procedure: as §1

[5] = tested on: Avena fatua (AVEFA); assay: as above; conditions: 360 h, evaluated 15 days after spraying, read-out: herbicidal damage AVEFA (100=total damage to plant; 0=no damage to plant); for pest or weed control at 125 g/ha: rate 125 g/ha
Procedure: as §1

[6] = tested on: Lolium perenne (LOLPE); assay: as above; conditions: 360 h, evaluated 15 days after spraying, read-out: herbicidal damage LOLPE (100=total damage to plant; 0=no damage to plant); for pest or weed control at 125 g/ha: rate 125 g/ha
Procedure: as §1

[7] = tested on: Echinochloa crus-galli (ECHCG); assay: Example A pre-emergence herbicidal activity, glasshouse pot test; conditions: 480 h, rate 500 g/ha, evaluated 20 days later, 100=total damage to plant, 0=no damage to plant
Procedure: as §1, with “Pre-Emergence” for “Post Emergency”

[8] = tested on: Setaria faberi (SETFA); assay: as above; conditions: 480 h, rate 500 g/ha, evaluated 20 days later, 100=total damage to plant, 0=no damage to plant
Procedure: as §1, with “Pre-Emergence” for “Post Emergency”

[9] = tested on: Alopecurus myosuroides (ALOMY); assay: as above; conditions: 480 h, rate 500 g/ha, evaluated 20 days later, 100=total damage to plant, 0=no damage to plant
Procedure: as §1, with “Pre-Emergence” for “Post Emergency”

[10] = tested on: Digitaria sanguinalis (DIGSA); assay: as above; conditions: 480 h, rate 500 g/ha, evaluated 20 days later, 100=total damage to plant, 0=no damage to plant
Procedure: as §1, with “Pre-Emergence” for “Post Emergency”

[11] = tested on: Avena fatua (AVEFA); assay: as above; conditions: 480 h, rate 500 g/ha, evaluated 20 days later, 100=total damage to plant, 0=no damage to plant
Procedure: as §1, with “Pre-Emergence” for “Post Emergency”

[12] = tested on: Lolium perenne (LOLPE); assay: as above; conditions: 480 h, rate 500 g/ha, evaluated 20 days later, 100=total damage to plant, 0=no damage to plant
Procedure: as §1, with “Pre-Emergence” for “Post Emergency”

Row | SMILES | pest or weed control at 500 g/ha ([1]; rate 500 g/ha) [%] | pest or weed control at 500 g/ha ([2]; rate 500 g/ha) [%] | pest or weed control at 500 g/ha ([3]; rate 500 g/ha) [%] | pest or weed control at 500 g/ha ([4]; rate 500 g/ha) [%] | pest or weed control at 500 g/ha ([5]; rate 500 g/ha) [%] | pest or weed control at 500 g/ha ([6]; rate 500 g/ha) [%] | pest or weed control at 500 g/ha [7] [%] | pest or weed control at 500 g/ha [8] [%] | pest or weed control at 500 g/ha [9] [%] | pest or weed control at 500 g/ha [10] [%] | pest or weed control at 500 g/ha [11] [%] | pest or weed control at 500 g/ha [12] [%] | pest or weed control at 125 g/ha [1] [%] | pest or weed control at 125 g/ha [2] [%] | pest or weed control at 125 g/ha [3] [%] | pest or weed control at 125 g/ha [4] [%] | pest or weed control at 125 g/ha [5] [%] | pest or weed control at 125 g/ha [6] [%]
1 | Cc1ccc(-c2ccc(Cl)cc2)cc1C1=C(O)CC(C(C)C2CCOCC2)CC1=O (stereo not drawn) [Compound A-15] | 50 | 30 | 60 | 70 | 30 | 30 | 10 | 20 | 10 | 20 | 40 | 0 | – | – | – | – | – | –
2 | CCc1cc(C)cc(CC)c1C1=C(O)CC(CC2CCS(=O)(=O)CC2)CC1=O (stereo not drawn) [Compound A-17] | – | – | – | – | – | – | 100 | 100 | 100 | 100 | 100 | 100 | 100 | 50 | 90 | 80 | 100 | 90
3 | CCc1cc(C)cc(CC)c1C1=C(O)CC(C(C)C2CCOC2)CC1=O (stereo not drawn) [Compound A-18] | – | – | – | – | – | – | 100 | 100 | 90 | 100 | 100 | 100 | 100 | 50 | 100 | 80 | 90 | 100
4 | CCc1cc(CC)c(C2=C(O)CC(CC3CCOCC3)CC2=O)c(CC)c1 (stereo not drawn) [Compound A-19] | – | – | – | – | – | – | 100 | 100 | 100 | 100 | 60 | 100 | 70 | 60 | 70 | 60 | 20 | 70
5 | CCc1ccc(-c2ccc(Cl)cc2)cc1C1=C(O)CC(CC2CCOCC2)CC1=O (stereo not drawn) [Compound A-20] | – | – | – | – | – | – | 100 | 70 | 50 | 40 | 10 | 40 | 100 | 80 | 40 | 100 | 60 | 40
